# Measured values reported in ChEMBL document CHEMBL3885881, “DrugMatrix”.
# Organism: Rattus norvegicus
# Assay: DrugMatrix - Regimen: Daily Repeat
# Assay type: toxicity, organism-based, Sprague-Dawley
# Parameters: regimen Daily Repeat, gender Male, age 6-8 weeks
# Conditions: in vivo, sc, 24 mg/kg, route subcutaneous, dose level High, […]; for ABSOLUTE BASOPHIL / ABSOLUTE EOSINOPHIL / ABSOLUTE LYMPHOCYTE / ABSOLUTE MONOCYTE / ABSOLUTE SEGMENTED NEUTROPHIL / BASOPHIL / EOSINOPHIL / ERYTHROCYTE COUNT / HEMATOCRIT / HEMOGLOBIN / LEUKOCYTE COUNT / LYMPHOCYTE / MEAN CORPUSCULAR HEMOGLOBIN / MEAN CORPUSCULAR HEMOGLOBIN CONCENTRATION / MEAN CORPUSCULAR VOLUME / MONOCYTE / NEUTROPHIL / NUCLEATED RED BLOOD CELLS / PLATELET COUNT: tissue Blood; for ALANINE AMINOTRANSFERASE / ALBUMIN / ALKALINE PHOSPHATASE / ASPARTATE AMINOTRANSFERASE / BLOOD UREA NITROGEN / CARBON DIOXIDE / CHLORIDE / CHOLESTEROL / CREATINE PHOSPHOKINASE / CREATININE / GLUCOSE / LACTATE DEHYDROGENASE / LIPASE / PHOSPHORUS / POTASSIUM / SODIUM / TOTAL BILIRUBIN / TOTAL PROTEIN / URIC ACID: tissue Plasma
compound,measurement,setting,value
CCCCNc1ccc(C(=O)OCCN(C)C)cc1 [TETRACAINE],ABSOLUTE BASOPHIL,"72 h, time 3 day",0 CELLS/uL
same,ABSOLUTE EOSINOPHIL,"72 h, time 3 day",116 CELLS/uL
same,ABSOLUTE LYMPHOCYTE,"72 h, time 3 day",16844.33 CELLS/uL
same,ABSOLUTE MONOCYTE,"72 h, time 3 day",146.67 CELLS/uL
same,ABSOLUTE SEGMENTED NEUTROPHIL,"72 h, time 3 day",1826.33 CELLS/uL
same,BASOPHIL,"72 h, time 3 day",0%
same,EOSINOPHIL,"72 h, time 3 day",0.67%
same,ERYTHROCYTE COUNT,"72 h, time 3 day",5.64 x10E6/uL
same,HEMATOCRIT,"72 h, time 3 day",36.43%
same,HEMOGLOBIN,"72 h, time 3 day",14.5 G/DL
same,LEUKOCYTE COUNT,"72 h, time 3 day",18.93 x10E3/uL
same,LYMPHOCYTE,"72 h, time 3 day",89%
same,MEAN CORPUSCULAR HEMOGLOBIN,"72 h, time 3 day",25.67 pg
same,MEAN CORPUSCULAR HEMOGLOBIN CONCENTRATION,"72 h, time 3 day",39.83 G/DL
same,MEAN CORPUSCULAR VOLUME,"72 h, time 3 day",64.53 fL
same,MONOCYTE,"72 h, time 3 day",0.67%
same,NEUTROPHIL,"72 h, time 3 day",9.67%
same,NUCLEATED RED BLOOD CELLS,"72 h, time 3 day",0.33 /100WBC
same,PLATELET COUNT,"72 h, time 3 day",1264.67 x10E3/uL
same,ALANINE AMINOTRANSFERASE,"72 h, time 3 day",68.67 u/L
same,ALBUMIN,"72 h, time 3 day",4.23 G/DL
same,ALKALINE PHOSPHATASE,"72 h, time 3 day",328 u/L
same,ASPARTATE AMINOTRANSFERASE,"72 h, time 3 day",81 u/L
same,BLOOD UREA NITROGEN,"72 h, time 3 day",17 mg/dL
same,CARBON DIOXIDE,"72 h, time 3 day",22.67 mmol/L
same,CHLORIDE,"72 h, time 3 day",104 MEQ/L
same,CHOLESTEROL,"72 h, time 3 day",77 mg/dL
same,CREATINE PHOSPHOKINASE,"72 h, time 3 day",175.67 u/L
same,CREATININE,"72 h, time 3 day",0.27 mg/dL
same,GLUCOSE,"72 h, time 3 day",177.33 mg/dL
same,LACTATE DEHYDROGENASE,"72 h, time 3 day",88.67 u/L
same,LIPASE,"72 h, time 3 day",9.67 u/L
same,PHOSPHORUS,"72 h, time 3 day",12.97 mg/dL
same,POTASSIUM,"72 h, time 3 day",6.72 MEQ/L
same,SODIUM,"72 h, time 3 day",147.97 MEQ/L
same,TOTAL BILIRUBIN,"72 h, time 3 day",0.27 mg/dL
same,TOTAL PROTEIN,"72 h, time 3 day",6.03 G/DL
same,URIC ACID,"72 h, time 3 day",1.53 mg/dL
same,ABSOLUTE BASOPHIL,"120 h, time 5 day",0 CELLS/uL
same,ABSOLUTE EOSINOPHIL,"120 h, time 5 day",49.33 CELLS/uL
same,ABSOLUTE LYMPHOCYTE,"120 h, time 5 day",12917.33 CELLS/uL
same,ABSOLUTE MONOCYTE,"120 h, time 5 day",97.33 CELLS/uL
same,ABSOLUTE SEGMENTED NEUTROPHIL,"120 h, time 5 day",1669.33 CELLS/uL
same,BASOPHIL,"120 h, time 5 day",0%
same,EOSINOPHIL,"120 h, time 5 day",0.33%
same,ERYTHROCYTE COUNT,"120 h, time 5 day",5.38 x10E6/uL
same,HEMATOCRIT,"120 h, time 5 day",33.97%
same,HEMOGLOBIN,"120 h, time 5 day",13.67 G/DL
same,LEUKOCYTE COUNT,"120 h, time 5 day",14.73 x10E3/uL
same,LYMPHOCYTE,"120 h, time 5 day",87.67%
same,MEAN CORPUSCULAR HEMOGLOBIN,"120 h, time 5 day",25.47 pg
same,MEAN CORPUSCULAR HEMOGLOBIN CONCENTRATION,"120 h, time 5 day",40.3 G/DL
same,MEAN CORPUSCULAR VOLUME,"120 h, time 5 day",63.2 fL
same,MONOCYTE,"120 h, time 5 day",0.67%
same,NEUTROPHIL,"120 h, time 5 day",11.33%
same,NUCLEATED RED BLOOD CELLS,"120 h, time 5 day",0.33 /100WBC
same,PLATELET COUNT,"120 h, time 5 day",1410.33 x10E3/uL
same,ALANINE AMINOTRANSFERASE,"120 h, time 5 day",58.33 u/L
same,ALBUMIN,"120 h, time 5 day",3.93 G/DL
same,ALKALINE PHOSPHATASE,"120 h, time 5 day",329 u/L
same,ASPARTATE AMINOTRANSFERASE,"120 h, time 5 day",92.67 u/L
same,BLOOD UREA NITROGEN,"120 h, time 5 day",14.67 mg/dL
same,CARBON DIOXIDE,"120 h, time 5 day",23 mmol/L
same,CHLORIDE,"120 h, time 5 day",104.67 MEQ/L
same,CHOLESTEROL,"120 h, time 5 day",71 mg/dL
same,CREATINE PHOSPHOKINASE,"120 h, time 5 day",172 u/L
same,CREATININE,"120 h, time 5 day",0.22 mg/dL
same,GLUCOSE,"120 h, time 5 day",160.67 mg/dL
same,LACTATE DEHYDROGENASE,"120 h, time 5 day",83.67 u/L
same,LIPASE,"120 h, time 5 day",9.67 u/L
same,PHOSPHORUS,"120 h, time 5 day",12.47 mg/dL
same,POTASSIUM,"120 h, time 5 day",6.53 MEQ/L
same,SODIUM,"120 h, time 5 day",146.2 MEQ/L
same,TOTAL BILIRUBIN,"120 h, time 5 day",0.23 mg/dL
same,TOTAL PROTEIN,"120 h, time 5 day",5.73 G/DL
same,URIC ACID,"120 h, time 5 day",1.73 mg/dL
